Data reported in patent publication US5807986A, “Methods of making and screening betide libraries” (The Salk Institute For Biological Studies, priority 1995, dated 1998).
Values joined by “and” are separate entries in the source; they are usually repeats but may differ in a detail not shown here. Equal entries are not always repeated. Where a SMILES comes first, the peptide text is derived from it. [ ]: non-standard residue; d: D form. dPhe(4-NH2) = Nc1ccc(C[C@@H](N)C(=O)O)cc1; dPhe(4-Cl) = N[C@H](Cc1ccc(Cl)cc1)C(=O)O; Phe(4-NH2) = Nc1ccc(C[C@H](N)C(=O)O)cc1; d2Nal = N[C@H](Cc1ccc2ccccc2c1)C(=O)O; Lys(iPr) = CC(C)NCCCC[C@H](N)C(=O)O; d3Pal = N[C@H](Cc1cccnc1)C(=O)O

Key:
[1] = examination of rats for tolerance and gelling at the point of injection; assay type: in vivo; conditions: rats of the anti-ovulation test, injected in bacteriostatic water
Protocol: (§1) The betide is assayed in vivo to determine its effectiveness to prevent ovulation in female rats. In this test, a specified number of mature female Sprague-Dawley rats, e.g. five to ten, each having a body weight from 225 to 250 grams, are injected with a specified microgram dosage of the betide in bacteriostatic water at about noon on the day of proestrus. Proestrus is the […] of ovulation. A separate female rat group is used as a control to which the peptide is not administered. Each of the control female rats ovulates on the evening of proestrus; the number of the rats treated which ovulate is recorded. […] At a dosage of 1.0 microgram for isomer (1), all ovulate while for 1 μg of isomer (2), only 6 out of 14 rats ovulate and for 0.5 μg, 3 out of 4 rats ovulate. Isomer (2) is hereinafter referred to as Betide No. 1.

[2] = hydrophilicity by retention on RP-HPLC; assay type: physicochemical
mSSTR1 = target: T1, mSSTR1 (Mus musculus, UniProt P30873); experiment: inhibition of radioligand binding to cloned SRIF receptor mSSTR1; conditions: cloned mouse receptor expressed on COS and CHO cells
T1 construct: expressed in transfected cells; host or cells: COS and CHO cells
Protocol: (§2) In vitro Bioassay: The effects of the various somatostatin analogs are tested in vitro for their ability to bind to isolated cloned receptors expressed on COS and CHO cells.
(§3) Five such receptor subtypes termed SSTR1 through SSTR5, have been cloned and are reported and described in Raynor et al., Molecular Pharmacology, 43, 838-844 (1993) and in Raynor et al., Molecular Pharmacology, 44, 385-392 (1993).

mSSTR2 = target: T2, mSSTR2 (Mus musculus, UniProt P30875); experiment: inhibition of radioligand binding to cloned SRIF receptor mSSTR2; conditions: cloned mouse receptor expressed on COS and CHO cells
T2 construct: expressed in transfected cells; host or cells: COS and CHO cells
Protocol: as §2, §3

mSSTR3 = target: T3, mSSTR3 (Mus musculus, UniProt P30935); experiment: inhibition of radioligand binding to cloned SRIF receptor mSSTR3; conditions: cloned mouse receptor expressed on COS and CHO cells
T3 construct: expressed in transfected cells; host or cells: COS and CHO cells
Protocol: as §2, §3

ovulation in female rats = experiment: standard in vivo rat anti-ovulation test; parameters: species or system Sprague-Dawley rats; conditions: injected at about noon on the day of proestrus
Protocol: as §1

T2 sequence (P30875 whole entry): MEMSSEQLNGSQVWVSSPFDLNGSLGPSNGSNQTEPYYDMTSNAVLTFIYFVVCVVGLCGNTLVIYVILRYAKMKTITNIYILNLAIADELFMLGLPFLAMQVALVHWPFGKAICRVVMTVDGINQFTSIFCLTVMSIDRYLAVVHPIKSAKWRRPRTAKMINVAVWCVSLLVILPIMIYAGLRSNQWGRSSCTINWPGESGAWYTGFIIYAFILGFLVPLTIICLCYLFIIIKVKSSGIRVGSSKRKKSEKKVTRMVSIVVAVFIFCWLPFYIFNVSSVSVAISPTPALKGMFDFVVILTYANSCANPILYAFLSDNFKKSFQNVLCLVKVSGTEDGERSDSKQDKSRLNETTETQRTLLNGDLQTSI
T1 sequence (P30873 whole entry): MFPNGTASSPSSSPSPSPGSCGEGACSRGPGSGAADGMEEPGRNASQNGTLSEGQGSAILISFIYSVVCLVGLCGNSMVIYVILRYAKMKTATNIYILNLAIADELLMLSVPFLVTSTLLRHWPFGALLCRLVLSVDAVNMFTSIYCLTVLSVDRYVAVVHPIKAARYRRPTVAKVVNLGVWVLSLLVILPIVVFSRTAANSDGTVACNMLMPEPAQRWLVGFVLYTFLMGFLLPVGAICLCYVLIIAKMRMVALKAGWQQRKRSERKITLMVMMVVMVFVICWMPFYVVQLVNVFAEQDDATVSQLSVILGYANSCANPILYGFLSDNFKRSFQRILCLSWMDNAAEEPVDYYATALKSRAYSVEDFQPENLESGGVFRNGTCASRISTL
T3 sequence (P30935 whole entry): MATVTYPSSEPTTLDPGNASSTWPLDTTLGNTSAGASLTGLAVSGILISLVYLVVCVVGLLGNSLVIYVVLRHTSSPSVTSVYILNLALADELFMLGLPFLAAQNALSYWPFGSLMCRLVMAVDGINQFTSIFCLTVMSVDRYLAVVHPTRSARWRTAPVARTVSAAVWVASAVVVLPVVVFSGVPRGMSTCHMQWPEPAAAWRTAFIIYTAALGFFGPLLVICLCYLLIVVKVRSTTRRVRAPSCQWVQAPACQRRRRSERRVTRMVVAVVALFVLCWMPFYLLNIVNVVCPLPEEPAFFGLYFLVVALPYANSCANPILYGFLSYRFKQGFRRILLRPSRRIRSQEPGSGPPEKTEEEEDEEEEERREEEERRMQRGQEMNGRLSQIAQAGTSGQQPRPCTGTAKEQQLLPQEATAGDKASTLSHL

Row | Molecule | IC50 (mSSTR1) | IC50 (mSSTR2) | rats ovulating out of rats treated (ovulation in female rats; dosage 5 μg) | further results
1 | CC(=O)Nc1ccc(C[C@H](NC(=O)[C@H](CO)NC(=O)C(NC(=O)c2cccnc2)NC(=O)[C@@H](Cc2ccc(Cl)cc2)NC(=O)[C@@H](Cc2ccc3ccccc3c2)NC(C)=O)C(=O)N[C@H](Cc2ccc(NC(C)=O)cc2)C(=O)N[C@@H](CC(C)C)C(=O)N[C@@H](CCCCNC(C)C)C(=O)N2CCC[C@H]2C(=O)N[C@H](C)C(N)=O)cc1 (single isomer, unassigned) [Betide No. 1, [Ac-β-D-2NAL^1, (4Cl)D-Phe^2, D/L Agl(nicotinoyl)^3, Aph(Ac)^5, D-Aph(Ac)^6, ILys^8, D-Ala^10]-GnRH] | – | – | – | tolerance and gelling at the point of injection [1]: very well tolerated, with no significant gelling at the point of injection being detectable
2 | CC(=O)Nc1ccc(C[C@H](NC(=O)[C@H](CO)NC(=O)[C@@H](Cc2cccnc2)NC(=O)[C@@H](Cc2ccc(Cl)cc2)NC(=O)[C@@H](Cc2ccc3ccccc3c2)NC(C)=O)C(=O)N[C@H](Cc2ccc(NC(C)=O)cc2)C(=O)N[C@@H](CC(C)C)C(=O)N[C@@H](CCCCNC(C)C)C(=O)N2CCC[C@H]2C(=O)N[C@H](C)C(N)=O)cc1 [Acyline, Ac-β-D-2NAL-(4Cl)D-Phe-D-3PAL-Ser-Aph(Ac)D-Aph(Ac)-Leu-ILys-Pro-D-Ala-NH2, reference compound] (Ac-[d2Nal][dPhe(4-Cl)][d3Pal]S[Phe(4-NH2)](Ac)[dPhe(4-NH2)](Ac)L[Lys(iPr)]P[dA]-NH2) | – | – | – | retention using RP-HPLC (hydrophilicity) ([2]; gradient 40% to 75% Buffer B over 30 minutes, Buffer A TEAP pH 7.3, Buffer B 60% CH3CN and 40% Buffer A): 24.1 min
3 | Ac-β-D-2NAL-(4Cl)D-Phe-D-3PAL-Ser-(4-Acetyl-amino-benzyl)D/L-amidoGly-D-Aph(acetyl)-Leu-Lys(isopropyl)-Pro-D-Ala-NH2 [Betide No. 4] | – | – | 2 out of 8 | –
4 | Ac-β-D-2NAL-(4Cl)D-Phe-D-3PAL-Ser-Aph(acetyl)-γ-(4-acetamidophenyl)D/L-amidoGly-Leu-Lys (isopropyl)-Pro-D-Ala-NH2 [Betide No. 5] | – | – | 1 out of 8 | rats ovulating out of rats treated (ovulation in female rats; dosage 2.5 μg): 2 out of 4
5 | Ac-β-D-2NAL-(4Cl)D-Phe-D-3PAL-Ser-γ-(4-hydroxyphenyl)D/L-amidoGly-D-Aph(acetyl)-Leu-Lys(isopropyl)-Pro-D-Ala-NH2 [Betide No. 4A] | – | – | 2 out of 16 | –
6 | Ac-β-D-2NAL-(4Cl)D-Phe-D-(3-pyridyl)Ala-Ser-Aph(acetyl)-D-Aph(acetyl)-D/L-Agl(Acetyl)-Lys(isopropyl)-Pro-D-Ala-NH2 [Betide No. 2] | – | – | 5 out of 8 | rats ovulating out of rats treated (ovulation in female rats; dosage 10 μg): 0 out of 8; hydrophilicity compared to Acyline ([2]; RP-HPLC): more hydrophilic than Acyline
7 | [Ac-βCH3 -D-2NAL^1, 4ClD-Phe^2, D-3PAL^3, Aph(atz)^5, D-Aph(atz)^6, ILys^8, D-Ala^10 ]-GnRH [E stereoisomer] | – | – | – | rats ovulating out of rats treated (ovulation in female rats; dosage 1.0 μg): partially active; rats ovulating out of rats treated (ovulation in female rats; dosage 2.5 μg): fully active

Now from value to molecule, other results behind:

Row | IC50 (mSSTR1) | IC50 (mSSTR2) | Molecule | rats ovulating out of rats treated (ovulation in female rats; dosage 5 μg) | further results
8 | > 1000 nM | > 1000 nM | C[C@@H](O)[C@@H]1NC(=O)[C@H](CCCCN)NC(=O)C(NC(=O)c2ccc3ccccc3c2)NC(=O)[C@H](Cc2ccccc2)NC(=O)[C@H](Cc2ccccc2)NC(=O)[C@@H](N)CSSC[C@@H](C(=O)O)NC(=O)[C@H](Cc2ccccc2)NC1=O (stereo partly drawn) [Betide No. 7, (cyclo 1-8)H-Cys-Phe-Phe-(2-naphthylamido)Gly-Lys-Thr-Phe-Cys-OH] | – | IC50 (mSSTR3): > 1000 nM
9 | > 1000 nM and 600 nM | > 1000 nM | C[C@@H](O)[C@@H]1NC(=O)[C@H](CCCCN)NC(=O)C(N(C)C(=O)c2ccc3ccccc3c2)NC(=O)[C@H](Cc2ccccc2)NC(=O)[C@H](Cc2ccccc2)NC(=O)[C@@H](N)CSSC[C@@H](C(=O)O)NC(=O)[C@H](Cc2ccccc2)NC1=O (stereo partly drawn) [Betide No. 7A, (cyclo 1-8)H-Cys-Phe-Phe-(β-methyl-γ-2-naphthyl)D/L(amido)Gly-Lys-Thr- Phe-Cys-OH] | – | –
10 | > 1000 nM | > 1000 nM | C[C@@H](O)[C@@H]1NC(=O)C(NC(=O)CCN)NC(=O)[C@@H](Cc2c[nH]c3ccccc23)NC(=O)[C@H](Cc2ccccc2)NC(=O)[C@H](Cc2ccccc2)NC(=O)[C@@H](N)CSSC[C@@H](C(=O)O)NC(=O)[C@H](Cc2ccccc2)NC1=O (stereo partly drawn) [Betide No. 8, (cyclo 1-8)H-Cys-Phe-Phe-D-Trp-γ-(2-aminoethyl)amido-glycine-Thr-Phe-Cys-OH] | – | IC50 (mSSTR3): > 1000 nM
